Columns and labels:
CDK9/CycT1 [1] = target: T1, CDK9/CycT1 (Homo sapiens, UniProt P50750); experiment: CDK9/CycT1 kinase assay (Method 1a, TR-FRET); assay type: biochemical; conditions: for IC50: Method 1a, 10 μM ATP; for Selectivity CDK9 over CDK2: IC50 (CDK2)/IC50 (CDK9): ratio of Method 2 to Method 1a values
T1 construct: Recombinant full-length His-tagged human CDK9 and CycT1; His; purchased Invitrogen PV4131; host or cells: insect cells
Text: 1a. CDK9/CyeT1 Kinase Assay:
CDK9/CycT1-inhibitory activity of compounds of the present invention was quantified employing the CDK9/CycT1 TR-FRET assay as described in the following paragraphs:
Recombinant full-length His-tagged human CDK9 and CycT1, expressed in insect cells and purified by Ni-NTA affinity chromatography, were purchased from Invitrogen (Cat. No PV4131). As substrate for the kinase reaction biotinylated peptide biotin-Ttds-YISPLKSPYKISEG (C-terminus in amid form) was used which can be purchased e.g. form the company JERINI Peptide Technologies (Berlin, Germany). For the assay 50 nl of a 100 fold concentrated solution of the test compound in DMSO was pipetted into a black low volume 384 well microtiter plate (Greiner Bio-One, Frickenhausen, Germany), 2 μl of a solution of CDK9/CycT1 in aqueous assay buffer [50 mM Tris/HCl pH 8.0, 10 mM MgCl2, 1.0 mM dithiothreitol, 0.1 mM sodium ortho-vanadate, 0.01% (v/v) Nonidet-P40 (Sigma)] were added and the mixture was incubated for 15 min at 22° C. to allow pre-binding of the test compounds to the enzyme before the start of the kinase reaction. Then the kinase reaction was started by the addition of 3 μl of a solution of adenosine-tri-phosphate (ATP, 16.7 μM=>final conc. in the 5 μl assay volume is 10 μM) and substrate (1.67 μM=>final conc. in the 5 μl assay volume is 1 μM) in assay buffer and the resulting mixture was incubated for a reaction time of 25 min at 22° C. The concentration of CDK9/CycT1 was adjusted depending of the activity of the enzyme lot and was chosen appropriate to have the assay in the linear range, typical concentrations were in the range of 1 μg/mL. The reaction was stopped by the addition of 5 μl of a solution of TR-FRET detection reagents (0.2 μM streptavidine-XL665 [Cisbio Bioassays, Codolet, France] and 1 nM anti-RB(pSer807/pSer811)-antibody from BD Pharmingen [#558389] and 1.2 nM LANCE EU-W1024 labeled anti-mouse IgG antibody [Perkin-Elmer, product no. AD0077]) in an aqueous EDTA-solution (100 mM EDTA, 0.2% (w/v) bovine serum albumin in 100 mM HEPES/NaOH pH 7.0).
(§1) The resulting mixture was incubated 1 h at 22° C. to allow the formation of complex between the phosphorylated biotinylated peptide and the detection reagents. Subsequently the amount of phosphorylated substrate was evaluated by measurement of the resonance energy transfer from the Eu-chelate to the streptavidine-XL. Therefore, the fluorescence emissions at 620 nm and 665 nm after excitation at 350 nm was measured in a HTRF reader, e.g. a Rubystar (BMG Labtechnologies, Offenburg, Germany) or a Viewlux (Perkin-Elmer). The ratio of the emissions at 665 nm and at […] was taken as the measure for the amount of phosphorylated substrate. The data were normalised (enzyme reaction without inhibitor=0% inhibition, all other assay components but no enzyme=100% inhibition).

CDK9/CycT1 [2] = target: T1, CDK9/CycT1; experiment: CDK9/CycT1 high ATP kinase assay (Method 1b, TR-FRET); assay type: biochemical; conditions: 2 mM ATP
Method: 1b. CDK9/CyeT1 High ATP Kinase Assay
CDK9/CycT1-inhibitory activity of compounds of the present invention at a high ATP concentration after preincubation of enzyme and test compounds was quantified employing the CDK9/CycT1 TR-FRET assay as described in the following paragraphs.
Recombinant full-length His-tagged human CDK9 and CycT1, expressed in insect cells and purified by Ni-NTA affinity chromatography, were purchase from Invitrogen (Cat. No PV4131). As substrate for the kinase reaction biotinylated peptide biotin-Ttds-YISPLKSPYKISEG (C-terminus in amid form) was used which can be purchased e.g. form the company JERINI peptide technologies (Berlin, Germany). For the assay 50 nl of a 100 fold concentrated solution of the test compound in DMSO was pipetted into a black low volume 384 well microtiter plate (Greiner Bio-One, Frickenhausen, Germany), 2 μl of a solution of CDK9/CycT1 in aqueous assay buffer [50 mM Tris/HCl pH 8.0, 10 mM MgCl2, 1.0 mM dithiothreitol, 0.1 mM sodium ortho-vanadate, 0.01% (v/v) Nonidet-P40 (Sigma)] were added and the mixture was incubated for […] at 22° C. to allow pre-binding of the test compounds to the enzyme before the start of the kinase reaction. Then the kinase reaction was started by the addition of 3 μl of a solution of adenosine-tri-phosphate (ATP, 3.3 mM=>final conc. in the 5 μl assay volume is 2 mM) and substrate (1.67 μM=>final conc. in the 5 μl assay volume is 1 μM) in assay buffer and the resulting mixture was incubated for a reaction time of […] at 22° C. The concentration of CDK9/CycT1 was adjusted depending of the activity of the enzyme lot and was chosen appropriate to have the assay in the linear range, typical concentrations were in the range of 0.5 μg/mL The reaction was stopped by the addition of 5 μl of a solution of TR-FRET detection reagents (0.2 μM streptavidine-XL665 [Cisbio Bioassays, Codolet, France] and 1 nM anti-RB(pSer807/pSer811)-antibody from BD Pharmingen [#558389] and 1.2 nM LANCE EU-W1024 labeled anti-mouse IgG antibody [Perkin-Elmer, product no. AD0077]) in an aqueous EDTA-solution (100 mM EDTA, 0.2% (w/v) bovine serum albumin in 100 mM HEPES/NaOH pH 7.0).
as §1

T1 sequence (P50750 whole entry): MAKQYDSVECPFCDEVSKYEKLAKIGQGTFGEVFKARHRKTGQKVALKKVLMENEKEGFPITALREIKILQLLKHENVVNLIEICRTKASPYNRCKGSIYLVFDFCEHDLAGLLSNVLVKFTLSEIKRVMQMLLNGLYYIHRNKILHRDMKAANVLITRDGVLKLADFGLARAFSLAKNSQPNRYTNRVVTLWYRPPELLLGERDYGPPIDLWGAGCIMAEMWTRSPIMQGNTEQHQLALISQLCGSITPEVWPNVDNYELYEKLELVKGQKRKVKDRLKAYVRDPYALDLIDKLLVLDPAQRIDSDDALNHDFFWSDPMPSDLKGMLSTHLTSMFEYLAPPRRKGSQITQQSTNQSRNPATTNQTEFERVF
T1 sequence (O60563 whole entry partner): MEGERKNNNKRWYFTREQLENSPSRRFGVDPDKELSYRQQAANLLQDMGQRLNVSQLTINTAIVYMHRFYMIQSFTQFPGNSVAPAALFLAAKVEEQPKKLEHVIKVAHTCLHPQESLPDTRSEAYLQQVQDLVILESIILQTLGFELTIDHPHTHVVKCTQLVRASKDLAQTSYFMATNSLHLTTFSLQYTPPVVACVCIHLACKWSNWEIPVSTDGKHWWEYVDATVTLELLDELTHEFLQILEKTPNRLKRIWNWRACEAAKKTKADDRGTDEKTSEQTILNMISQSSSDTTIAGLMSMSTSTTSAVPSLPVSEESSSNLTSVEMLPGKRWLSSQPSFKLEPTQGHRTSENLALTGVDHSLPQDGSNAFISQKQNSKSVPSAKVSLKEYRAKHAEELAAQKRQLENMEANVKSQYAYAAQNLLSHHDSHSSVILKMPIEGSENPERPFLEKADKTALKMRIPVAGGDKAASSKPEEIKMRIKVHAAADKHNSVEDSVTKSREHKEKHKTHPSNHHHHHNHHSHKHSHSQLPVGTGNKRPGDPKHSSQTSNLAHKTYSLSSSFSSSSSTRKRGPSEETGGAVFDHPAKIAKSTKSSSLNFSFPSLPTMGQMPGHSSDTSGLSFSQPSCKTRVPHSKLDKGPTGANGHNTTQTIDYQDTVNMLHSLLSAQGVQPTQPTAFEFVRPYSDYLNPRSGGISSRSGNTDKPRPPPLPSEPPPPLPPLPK

Row | Structure (SMILES) | IC50 (CDK9/CycT1 [1]) | Selectivity CDK9 over CDK2: IC50 (CDK2)/IC50 (CDK9) (CDK9/CycT1 [1]) | IC50 (CDK9/CycT1 [2])
1 | CS(=N)(=O)Cc1cc(F)nc(Nc2cc(-c3ccc(F)c4ccoc34)c(F)cn2)c1 (racemic) [Example 1, (rac)-5-Fluoro-4-(4-fluoro-1-benzofuran-7-yl)-N-{6-fluoro-4-[(S-methylsulfonimidoyl)methyl]pyridin-2-yl}pyridin-2-amine] | 4 nM | 11 | 1.5 nM
2 | CS(=O)(Cc1cc(F)nc(Nc2cc(-c3ccc(F)c4ccoc34)c(F)cn2)c1)=NC(=O)C(F)(F)F (racemic) [Example 2, (rac)-2,2,2-Trifluoro-N-{[(2-fluoro-6-{[5-fluoro-4-(4-fluoro-1-benzofuran-7-yl)pyridin-2-yl]amino}pyridin-4-yl)methyl](methyl)oxido-λ^6-sulfanylidene}acetamide] | 7 nM | 54 | 7.8 nM
3 | CS(=N)(=O)Cc1cc(Nc2cc(-c3ccc(F)c4ccoc34)c(F)cn2)nc(C(F)(F)F)c1 (racemic) [Example 3, (rac)-5-Fluoro-4-(4-fluoro-1-benzofuran-7-yl)-N-{4-[(S-methylsulfonimidoyl)methyl]-6-(trifluoromethyl)pyridin-2-yl}pyridin-2-amine] | 5.8 nM | 3.6 | 2.7 nM
4 | CS(=O)(Cc1cc(Nc2cc(-c3ccc(F)c4ccoc34)c(F)cn2)nc(C(F)(F)F)c1)=NC(=O)C(F)(F)F (racemic) [Example 4, (rac)-2,2,2-Trifluoro-N-[{[2-{[5-fluoro-4-(4-fluoro-1-benzofuran-7-yl)pyridin-2-yl]amino}-6-(trifluoromethyl)pyridin-4-yl]methyl}(methyl)oxido-λ^6-sulfanylidene]acetamide] | 19 nM | 5.8 | 7 nM
5 | CS(=N)(=O)Cc1ccnc(Nc2cc(-c3ccc(F)c4ccoc34)c(F)cn2)c1 (racemic) [Example 5, (rac)-5-Fluoro-4-(4-fluoro-1-benzofuran-7-yl)-N-{4-[(S-methylsulfonimidoyl)methyl]pyridin-2-yl}pyridin-2-amine] | 3.4 nM | 38 | 2 nM
6 | CS(=O)(Cc1ccnc(Nc2cc(-c3ccc(F)c4ccoc34)c(F)cn2)c1)=NC(=O)C(F)(F)F (racemic) [Example 6, (rac)-2,2,2-Trifluoro-N-{[(2-{[5-fluoro-4-(4-fluoro-1-benzofuran-7-yl)pyridin-2-yl]amino}pyridin-4-yl)methyl](methyl)oxido-λ^6-sulfanylidene}acetamide] | 4.9 nM | 110 | 6.4 nM
7 | Cc1cc(CS(C)(=N)=O)cc(Nc2cc(-c3ccc(F)c4ccoc34)c(F)cn2)n1 (racemic) [Example 7, (rac)-5-Fluoro-4-(4-fluoro-1-benzofuran-7-yl)-N-{6-methyl-4-[(S-methylsulfonimidoyl)-methyl]pyridin-2-yl}pyridin-2-amine] | 2.1 nM | 19 | 1.3 nM
8 | CCc1cc(CS(C)(=N)=O)cc(Nc2cc(-c3ccc(F)c4ccoc34)c(F)cn2)n1 (racemic) [Example 8, (rac)-N-{6-Ethyl-4-[(S-methylsulfonimidoyl)methyl]pyridin-2-yl}-5-fluoro-4-(4-fluoro-1-benzofuran-7-yl)pyridin-2-amine] |  |  | 1.3 nM
9 | CS(=O)(Cc1ccnc(Nc2cc(-c3ccc(F)c4ccoc34)c(F)cn2)c1)=NC#N (racemic) [Example 9, (rac)-{[(2-{[5-fluoro-4-(4-fluoro-1-benzofuran-7-yl)pyridin-2-yl]amino}pyridin-4-yl)methyl](methyl)oxido-λ^6-sulfanylidene}cyanamide] | 2.6 nM | 56 | 1.6 nM
10 | CC(=O)N=S(C)(=O)Cc1ccnc(Nc2cc(-c3ccc(F)c4ccoc34)c(F)cn2)c1 (racemic) [Example 10, (rac)-N-{[(2-{[5-fluoro-4-(4-fluoro-1-benzofuran-7-yl)pyridin-2-yl]amino}pyridin-4-yl)methyl](methyl)oxido-λ^6-sulfanylidene}acetamide] | 2.7 nM | 61 | 2.3 nM
11 | CCOC(=O)N=S(C)(=O)Cc1ccnc(Nc2cc(-c3ccc(F)c4ccoc34)c(F)cn2)c1 (racemic) [Example 11, (rac)-Ethyl {[(2-{[5-fluoro-4-(4-fluoro-1-benzofuran-7-yl)pyridin-2-yl]amino}pyridin-4-yl)methyl](methyl)oxido-λ^6-sulfanylidene}carbamate] | 3.1 nM | 45 | 2 nM
12 | CCNC(=O)N=S(C)(=O)Cc1ccnc(Nc2cc(-c3ccc(F)c4ccoc34)c(F)cn2)c1 (racemic) [Example 12, (rac)-1-Ethyl-3-{[(2-{[5-fluoro-4-(4-fluoro-1-benzofuran-7-yl)pyridin-2-yl]amino}pyridin-4-yl)methyl](methyl)oxido-λ^6-sulfanylidene}urea] | 2.6 nM | 44 | 1.9 nM
13 | CS(=O)(Cc1ccnc(Nc2cc(-c3ccc(F)c4ccoc34)c(F)cn2)c1)=NC(=O)NCC(F)(F)F (racemic) [Example 13, (rac)-1-{[(2-{[5-Fluoro-4-(4-fluoro-1-benzofuran-7-yl)pyridin-2-yl]amino}pyridin-4-yl)methyl](methyl)oxido-λ^6-sulfanylidene}-3-(2,2,2-trifluoroethyl)urea] | 2.6 nM | 108 | 2.3 nM
